The values below come from article PMC7349657, “Efficient Targeted Degradation via Reversible and Irreversible Covalent PROTACs” (Journal of the American Chemical Society, 2020).

For test [1], the target named is T1, BTK (Homo sapiens, UniProt Q06187). Briefly: BTK degradation in patient-derived primary CLL cells (Western blot). It is filed as cell-based. Set-up: endogenous in cells. The following applies: 18 h. On the procedure: To assess the PROTACs’ efficiency in a clinically relevant model, we tested their ability to induce BTK degradation in primary cells from chronic lymphocytic leukemia (CLL) patients.
Figure 4 Degradation of BTK in patient-derived CLL cells. Patient-derived primary CLL cells were treated with BTK PROTACs for 18 h, followed by measuring BTK levels via Western blot. M-IGHV/UM-IGHV: mutated/unmutated immunoglobulin heavy chain variable region (IGHV) gene.
The LC–MS/MS instrument consi sted of an Acquit y I-class UPLC system (Waters) and Xevo TQ-XS triple quadrupole mass spectrometer (Waters) equipped with an electrospray ion source. Chromatographic separation was done on UPLC BEH C18 column (50mm × 2.1mm, 1.7-µm, Waters) using 50-100% gradient of 95%-aqueous acetonitrile with 0.1% formic acid in aqueous 0.1% formic acid during 2.5 minut e s, with a flow rate of 0. 3 mL min−1 and column temperature 30°C. Samples kept at 10°C were automatically injected in a volume of 3µl.
MS parameters (positive ion mode): capillary voltage - 2. 0kV, source temperature - […]
Targeting BTK in CLL cells […]
Following incubation with PROTACs as detailed, cells were collected and lysed in cell lysis buffer (Cell Signaling Technology, Beverly, MA) containing Phosphatase Inhibitor Cocktail 2 and protease inhibitor Cocktail (Sigma-Aldrich, St. Louis, MO). […] Bands were detected using MyECL Imager (Thermo Scientific, […]
In general terms: A western blot detects proteins with antibodies after separation by electrophoresis.

Test [2] addresses T1, BTK. Briefly: Mechanism validation: pretreatment with ibrutinib, thalidomide-OH or bortezomib before PROTAC in Mino cells. It is filed as cell-based. More on the design: endogenous in cells; host or cells: Mino (ATCC CRL-3000), Ramos (ATCC CRL-1596), K562 (NCI-60). The following applies: 2 h pretreatment, then PROTAC 24 h.

T1 sequence (Q06187 whole entry): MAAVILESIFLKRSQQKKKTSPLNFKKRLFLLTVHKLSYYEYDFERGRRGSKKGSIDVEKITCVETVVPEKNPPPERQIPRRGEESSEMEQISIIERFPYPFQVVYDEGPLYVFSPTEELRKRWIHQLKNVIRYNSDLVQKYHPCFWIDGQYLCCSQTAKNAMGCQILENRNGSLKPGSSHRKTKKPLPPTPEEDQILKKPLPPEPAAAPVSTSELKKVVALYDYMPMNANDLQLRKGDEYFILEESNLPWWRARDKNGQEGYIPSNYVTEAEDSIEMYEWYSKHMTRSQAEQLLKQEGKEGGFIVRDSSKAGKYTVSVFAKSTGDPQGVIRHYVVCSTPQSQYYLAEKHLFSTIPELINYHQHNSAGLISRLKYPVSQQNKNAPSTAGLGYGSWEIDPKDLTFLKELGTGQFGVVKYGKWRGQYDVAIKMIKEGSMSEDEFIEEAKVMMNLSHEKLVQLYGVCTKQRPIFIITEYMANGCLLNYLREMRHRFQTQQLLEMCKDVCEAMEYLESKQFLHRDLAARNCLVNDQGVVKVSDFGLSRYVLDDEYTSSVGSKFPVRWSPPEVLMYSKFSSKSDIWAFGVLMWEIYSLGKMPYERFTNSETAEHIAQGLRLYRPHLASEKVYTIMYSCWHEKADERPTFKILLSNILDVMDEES

On to `Nc1ncnc2c1c(-c1ccc(Oc3ccccc3)cc1)nn2C1CCCN(C(=O)C=CCCCCOCCOCCOCCOCCOc2cccc3c2C(=O)N(C2CCC(=O)NC2=O)C3=O)C1` (stereo not drawn) [IR-2], for which the BTK degradation level entry in test [1] was “higher degradation levels than RC-2 and RC-3”.
As to `Nc1ncnc2c1c(-c1ccc(Oc3ccccc3)cc1)nn2C1CCCN(C(=O)CCCCCCOCCOCCOCCOCCOc2cccc3c2C(=O)N(C2CCC(=O)NC2=O)C3=O)C1` (stereo not drawn) [NC-1], the BTK degradation level entry in test [1] is “higher degradation levels than RC-2 and RC-3”. The “BTK degradation after thalidomide-OH pretreatment” value in test [2] is on record as “only slightly hindered by thalidomide”.
